Experimental findings from patent US20190010167A1, “INHIBITORS OF THE MENIN-MLL INTERACTION” (Vitae Pharmaceuticals, Inc., priority 2015, published 2019) are described below.

Some results are limits rather than exact numbers.

The target in this assay is T1, wild-type menin / MLL-AF9 fusion protein (Homo sapiens, UniProt O00255).
T1 construct: made in house; host or cells: E. coli (menin); HEK293 cleared lysate (MLL-AF9-FLAG)
T1 sequence (O00255 1-610): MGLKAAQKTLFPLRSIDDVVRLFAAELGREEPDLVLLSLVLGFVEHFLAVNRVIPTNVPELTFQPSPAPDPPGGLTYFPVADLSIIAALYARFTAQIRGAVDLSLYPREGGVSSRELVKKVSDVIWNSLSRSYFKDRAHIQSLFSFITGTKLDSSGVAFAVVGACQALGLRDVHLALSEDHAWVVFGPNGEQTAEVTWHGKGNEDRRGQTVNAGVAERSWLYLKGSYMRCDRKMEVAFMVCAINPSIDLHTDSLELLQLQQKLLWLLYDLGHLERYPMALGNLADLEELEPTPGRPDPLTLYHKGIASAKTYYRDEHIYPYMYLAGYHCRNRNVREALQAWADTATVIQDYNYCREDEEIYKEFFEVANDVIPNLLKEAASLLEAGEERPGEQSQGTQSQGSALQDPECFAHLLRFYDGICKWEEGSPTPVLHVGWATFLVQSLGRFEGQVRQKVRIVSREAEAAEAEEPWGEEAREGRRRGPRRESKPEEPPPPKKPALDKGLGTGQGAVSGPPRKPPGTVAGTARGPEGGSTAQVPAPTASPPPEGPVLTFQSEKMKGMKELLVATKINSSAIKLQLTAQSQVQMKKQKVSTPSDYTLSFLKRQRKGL
Description: AlphaLISA menin/MLL binding assay, wild-type menin (Assay 1). The conditions noted are these: biotinylated wild-type menin 5 nM, MLL-AF9-FLAG lysate. The procedure:
Potencies of inhibitor compounds against menin/MLL binding were assessed by AlphaLISA assay using biotinylated (1) wild-type menin or (2) mutated menin (described in Nature (2012) Vol. 482, pp. 542-548) and MLL-AF9 fusion protein bearing a FLAG epitope at its C-terminus. Menin proteins were expressed in E. coli and covalently modified with biotin using EZ-Link™ Sulfo-NHS-Biotin (ThermoFisher Cat. No. 21217) according to manufacturer's protocol. MLL1-1,396 fused to AF91-92 and the C-terminal FLAG peptide was expressed in HEK293 cells and used as a lysate cleared at 21,000×g for 10 min.
Compounds (2 μL of solutions in DMSO) were dispensed in white 96-well half-area plates (Corning Cat. No. 3693) and incubated for 30 min at RT with 5 nM biotinylated menin and appropriate amount of MLL-AF9-FLAG lysate in 40 μL of 50 mM Tris-HCl buffer pH 7.4 containing 5% (v/v) DMSO, 50 mM NaCl, 0.01% (w/v) bovine serum albumin (BSA) and 1 mM DTT. To this incubation mixture, 40 μl of AlphaLISA anti-FLAG acceptor (PerkinElmer Cat. No. AL112C) and streptavidin donor (PerkinElmer Cat. No. 6760002) beads (10 μg/mL each) was added and incubation continued at RT for 60 min. Alpha (amplified luminescent proximity homogeneous assay) signal was measured on an Envision multi-label plate reader at the end of the incubation. All steps were conducted under dim fluorescent light.
These percent inhibition values were regressed against compound concentrations in the assay using four parameter logit non-linear curve fitting (XLFit, IDBS). The IC50 values were derived from the curve fitting as inflection points on the dose-response curves and are set out in Table 1 below.
(In Alpha technology, singlet oxygen from a donor bead excites a nearby acceptor bead.)
Consider `Cc1c(CN2CCC3(CCN(c4ncnc5sc(CC(F)(F)F)cc45)C3)C2)ccc2[nH]c(C#N)cc12` (single isomer, unassigned) [Example 30b, 4-methyl-5-((7-(6-(2,2,2-trifluoroethyl)thieno[2,3-d]pyrimidin-4-yl)-2,7-diazaspiro[4.4]nonan-2-yl)methyl)-1H-indole-2-carbonitrile], for which the IC50 (in general, the concentration that inhibits the measured activity by half) is less than 100 nM.
For `Cc1c(CN2CC[C@@]3(CCN(c4ccnc5ccc(CC(F)(F)F)cc45)C3)C2)ccc2[nH]c(C#N)cc12` (single isomer, unassigned) [Example 86a, 4-methyl-5-((7-(6-(2,2,2-trifluoroethyl)quinolin-4-yl)-2,7-diazaspiro[4.4]nonan-2-yl)methyl)-1H-indole-2-carbonitrile] the value was 100 to 1000 nM; for `Cc1c(CN2CC[C@@]3(CCN(c4ccnc5ccc(CC(F)(F)F)cc45)C3)C2)ccc2[nH]c(C#N)cc12` (single isomer, unassigned) [Example 86b, 4-methyl-5-((7-(6-(2,2,2-trifluoroethyl)quinolin-4-yl)-2,7-diazaspiro[4.4]nonan-2-yl)methyl)-1H-indole-2-carbonitrile], 100 to 1000 nM; for `CC(C)N1CC2(CCN(c3ncnc4sc(CC(F)(F)F)cc34)CC2)C1` [Example 3, 4-(2-isopropyl-2,7-diazaspiro[3.5]nonan-7-yl)-6-(2,2,2-trifluoroethyl)thieno[2,3-d]pyrimidine], not below 1000 nM.
`FC(F)(F)Cc1cc2c(N3CCC4(CC3)CN(CC3CCCO3)C4)ncnc2s1` (stereo not shown) [Example 4, 4-(2-((tetrahydrofuran-2-yl)methyl)-2,7-diazaspiro[3.5]nonan-7-yl)-6-(2,2,2-trifluoroethyl)thieno[2,3-d]pyrimidine] yielded an IC50 not below 1000 nM.
As for `FC(F)(F)Cc1cc2c(N3CCC4(CC3)CN(CC3CCOC3)C4)ncnc2s1` (stereo not shown) [Example 5, 4-(2-((tetrahydrofuran-3-yl)methyl)-2,7-diazaspiro[3.5]nonan-7-yl)-6-(2,2,2-trifluoroethyl)thieno[2,3-d]pyrimidine], the figure is 100 to 1000 nM.
As to `FC(F)(F)Cc1cc2c(N3CCC4(CC3)CN(CC3CCCCO3)C4)ncnc2s1` (stereo not shown) [Example 6, 4-(2-((tetrahydro-2H-pyran-2-yl)methyl)-2,7-diazaspiro[3.5]nonan-7-yl)-6-(2,2,2-trifluoroethyl)thieno[2,3-d]pyrimidine], the IC50 was not below 1000 nM.
For `FC(F)(F)Cc1cc2c(N3CCC4(CC3)CN(CC3CCCOC3)C4)ncnc2s1` (stereo not shown) [Example 7, 4-(2-((tetrahydro-2H-pyran-3-yl)methyl)-2,7-diazaspiro[3.5]nonan-7-yl)-6-(2,2,2-trifluoroethyl)thieno[2,3-d]pyrimidine] the value was not below 1000 nM; for `FC(F)(F)Cc1cc2c(N3CCC4(CC3)CN(C3CCOCC3)C4)ncnc2s1` [Example 8, 4-(2-(tetrahydro-2H-pyran-4-yl)-2,7-diazaspiro[3.5]nonan-7-yl)-6-(2,2,2-trifluoroethyl)thieno[2,3-d]pyrimidine], not below 1000 nM.
For `FC(F)(F)Cc1cc2c(N3CCC4(CC3)CN(C3CCCCC3)C4)ncnc2s1` [Example 9, 4-(2-cyclohexyl-2,7-diazaspiro[3.5]nonan-7-yl)-6-(2,2,2-trifluoroethyl)thieno[2,3-d]pyrimidine] the value was 100 to 1000 nM; for `FC(F)(F)Cc1cc2c(N3CCC4(CC3)CN(CC3CCCC(F)(F)C3)C4)ncnc2s1` (stereo not shown) [Example 11, 4-(2-((3,3-difluorocyclohexyl)methyl)-2,7-diazaspiro[3.5]nonan-7-yl)-6-(2,2,2-trifluoroethyl)thieno[2,3-d]pyrimidine], 100 to 1000 nM.
For `FC(F)(F)Cc1cc2c(N3CCC4(CC3)CN(CC3CCC(F)(F)CC3)C4)ncnc2s1` [Example 12, 4-(2((4,4-difluorocyclohexyl)methyl)-2,7-diazaspiro[3.5]nonan-7-yl)-6-(2,2,2-trifluoroethyl)thieno[2,3-d]pyrimidine], the IC50 lay within 100 to 1000 nM.
As for `COC1CC(CN2CC3(CCN(c4ncnc5sc(CC(F)(F)F)cc45)CC3)C2)C1` (stereo not shown) [Example 13], the figure is not below 1000 nM.
As for `FC(F)(F)Cc1cc2c(N3CCC4(CC3)CN(CC3CC(F)(F)C3)C4)ncnc2s1` [Example 14, 4-(2-((3,3-difluorocyclobutyl)methyl)-2,7-diazaspiro[3.5]nonan-7-yl)-6-(2,2,2-trifluoroethyl)thieno[2,3-d]pyrimidine], the figure is 100 to 1000 nM; as for `CC(C)(O)CN1CC2(CCN(c3ncnc4sc(CC(F)(F)F)cc34)CC2)C1` [Example 15, 2-methyl-1-(7-(6-(2,2,2-trifluoroethyl)thieno[2,3-d]pyrimidin-4-yl)-2,7-diazaspiro[3.5]nonan-2-yl)propan-2-ol], not below 1000 nM.
As for `CC(C)(F)CN1CC2(CCN(c3ncnc4sc(CC(F)(F)F)cc34)CC2)C1` [Example 16, 4-(2-(2-fluoro-2-methylpropyl)-2,7-diazaspiro[3.5]nonan-7-yl)-6-(2,2,2-trifluoroethyl)thieno[2,3-d]pyrimidine], the figure is not below 1000 nM.
The molecule `CC(C)(N)CC(=O)N1CC2(CCN(c3ncnc4sc(CC(F)(F)F)cc34)CC2)C1` [Example 17, 3-amino-3-methyl-1-(7-(6-(2,2,2-trifluoroethyl)thieno[2,3-d]pyrimidin-4-yl)-2,7-diazaspiro[3.5]nonan-2-yl)butan-1-one] displayed an IC50 not below 1000 nM.
As for `FC(F)(F)Cc1cc2c(N3CCC4(CC3)CN(CC3CCOCC3)C4)ncnc2s1` [Example 19, 4-(2-((tetrahydro-2H-pyran-4-yl)methyl)-2,7-diazaspiro[3.5]nonan-7-yl)-6-(2,2,2-trifluoroethyl)thieno[2,3-d]pyrimidine], the figure is 100 to 1000 nM.
For `Cc1c(CN2CC3(CCN(c4ncnc5sc(CC(F)(F)F)cc45)CC3)C2)ccc2[nH]c(C#N)cc12` [Example 21, 4-methyl-5-((7-(6-(2,2,2-trifluoroethyl)thieno[2,3-d]pyrimidin-4-yl)-2,7-diazaspiro[3.5]nonan-2-yl)methyl)-1H-indole-2-carbonitrile] the value was 100 to 1000 nM; for `FC(F)(F)Cc1cc2c(N3CCC4(CCN(CC5CCOC5)C4)C3)ncnc2s1` (stereo not shown) [Example 31, 4-(7-((Tetrahydrofuran-3-yl)methyl)-2,7-diazaspiro[4.4]nonan-2-yl)-6-(2,2,2-trifluoroethyl)thieno[2,3-d]pyrimidine], 100 to 1000 nM.
As for `FC(F)(F)Cc1cc2c(N3CCC4(CCN(CC5CCC(F)(F)CC5)C4)C3)ncnc2s1` (stereo not shown) [Example 32, 4-(7-((4,4-difluorocyclohexyl)methyl)-2,7-diazaspiro[4.4]nonan-2-yl)-6-(2,2,2-trifluoroethyl)thieno[2,3-d]pyrimidine], the figure is 100 to 1000 nM; as for `N#Cc1cccc(CN2CCC3(CCN(c4ncnc5sc(CC(F)(F)F)cc45)C3)C2)c1` (stereo not shown) [Example 35, 3-((7-(6-(2,2,2-Trifluoroethyl)thieno[2,3-d]pyrimidin-4-yl)-2,7-diazaspiro[4.4]nonan-2-yl)methyl)benzonitrile], 100 to 1000 nM; as for `CS(=O)(=O)c1ccc(CN2CCC3(CCN(c4ncnc5sc(CC(F)(F)F)cc45)C3)C2)c(Cl)c1` (stereo not shown) [Example 36, 4-(7-(2-chloro-4-(methylsulfonyl)benzyl)-2,7-diazaspiro[4.4]nonan-2-yl)-6-(2,2,2-trifluoroethyl)thieno[2,3-d]pyrimidine], 100 to 1000 nM.
For `FC(F)(F)Cc1cc2c(N3CCC4(CCN(C[C@H]5CC[C@H](C(F)(F)F)CC5)C4)C3)ncnc2s1` (stereo partly shown) [Example 37, 6-(2,2,2-Trifluoroethyl)-4-(7-(((1r,4r)-4-(trifluoromethyl)cyclohexyl)methyl)-2,7-diazaspiro[4.4]nonan-2-yl)thieno[2,3-d]pyrimidine], the half-maximal inhibitory concentration (IC50) lay within 100 to 1000 nM.
As for `CC(=O)N[C@H]1CC[C@H](CN2CCC3(CCN(c4ncnc5sc(CC(F)(F)F)cc45)C3)C2)CC1` (stereo partly shown) [Example 47, N-((1r,4r)-4-((7-(6-(2,2,2-trifluoroethyl)thieno[2,3-d]pyrimidin-4-yl)-2,7-diazaspiro[4.4]nonan-2-yl)methyl)cyclohexyl)acetamide], the figure is 100 to 1000 nM.
